Read-outs that look alike come from different tables or passages of the source.
Tests used:
E. C. ATCC 25922 = test: MIC, broth microdilution (CLSI); format: cell-based, Escherichia coli; conditions: for MIC: Escherichia coli, ATCC25922, 20 h, read-out: E. C. ATCC 25922 MIC
Protocol: (§1) Bacterial isolates were cultivated from −70° C. frozen stocks by two consecutive overnight passages at 35° C. in ambient air on 5% blood agar (Remel, Lenexa, Kans.). Quality control strain, P. aeruginosa ATCC 27853, A. baumannii ATCC19606 and E. coli ATCC 25922 are from the American Type Culture Collection (ATCC; Rockville, Md.) and PAO1 was received from Dr. K. Poole.
(§2) Minimal Inhibitory Concentrations (MICs) were determined by the broth microdilution method in accordance with Clinical and Laboratories Institute (CLSI) guidelines (CLSI M100-S25, Performance Standards for Antimicrobial Susceptibility Testing; Twenty-fifth Informational Supplement). In brief, fresh bacterial overnight cultures were resuspended in sterile saline, adjusted to a 0.5 McFarland turbidity standard and then diluted 2000-fold in cation adjusted Mueller-Hinton Broth II (MHB; Remel BBL) to yield a final inoculum of approximately 5×10^5 colony-forming units (CFU)/mL. Two-fold serial dilutions of compounds were prepared in 100% dimethyl sulfoxide (DMSO) at 100-fold the highest final assay concentration; the resulting dilution series of compounds were diluted 1:10 with sterile water. Ten μl of the drug dilution series in 10% DMSO was transferred to microtiter wells and 90 μl of bacterial suspension was inoculated into the wells. For testing the ability of compounds to potentiate the activity of known antibiotics, the assay was modified as follows; known antibiotics were added to the bacterial inoculum at 1.1-fold the final assay concentration indicated in Table A. All inoculated microdilution trays were incubated in ambient air at 35° C. for 20 hours. Following incubation, assay plates were read in a microtiter plate reader at 600 nm and visually inspected to confirm the MIC endpoint well with the OD value. The lowest concentration of the compound that prevented visible growth was recorded as the MIC. Performance of the assay was monitored by testing ciprofloxacin against the laboratory quality control strain in accordance with guidelines of the CLSI.

A. B. ATCC 19606 [1] = test: MIC, broth microdilution (CLSI); format: cell-based, Acinetobacter baumannii; conditions: for MIC: Acinetobacter baumannii, read-out: A. B. ATCC 19606 MIC
Protocol: as §1, §2

E. C. ATCC 29522 = test: MIC in the presence of sub-inhibitory rifampicin (potentiation/synergy); format: cell-based, Escherichia coli; conditions: +2 μg/ml rifampicin (RIF); broth microdilution, 35° C., 20 hours
Protocol: as §1, §2

A. B. ATCC 19606 [2] = test: as above; format: cell-based, Acinetobacter baumannii; conditions: +2 μg/ml rifampicin (RIF); broth microdilution, 35° C., 20 hours
Protocol: as §1, §2

P. aeruginosa LpxC = target: T1, P. aeruginosa LpxC (Pseudomonas aeruginosa, UniProt P47205); test: P. aeruginosa LpxC Inhibition Assay (LC-MS/MS); format: biochemical; conditions: 1 nM P. aeruginosa LpxC, 30 min pre-incubation, 2 μM UDP-3-O-(R-3-hydroxydecanoyl)-GlcNAc, pH 7.5
T1 construct: made in house
T1 sequence (P47205 1-303): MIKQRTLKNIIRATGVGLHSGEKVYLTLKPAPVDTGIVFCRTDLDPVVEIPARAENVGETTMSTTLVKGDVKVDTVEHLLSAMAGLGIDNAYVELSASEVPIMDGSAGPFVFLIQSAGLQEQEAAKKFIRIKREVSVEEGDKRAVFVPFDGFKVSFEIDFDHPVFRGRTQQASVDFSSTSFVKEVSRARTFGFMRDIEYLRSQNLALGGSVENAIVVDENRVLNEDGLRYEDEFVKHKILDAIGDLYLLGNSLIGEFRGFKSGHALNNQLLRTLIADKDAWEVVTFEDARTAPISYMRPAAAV
Excerpt: P. aeruginosa LpxC Inhibition Assay
The P. aeruginosa LpxC protein is produced according to the general method of Hyland et al (Journal of Bacteriology 1997 179, 2029-2037: Cloning, expression and purification of UDP-3-O-acyl-GlcNAc deacetylase from Pseudomonas aeruginosa: a metalloamidase of the lipid A biosynthesis pathway). The LC-MS/MS method for quantitation of LpxC product was developed using an Agilent 1200 Capillary HPLC system coupled to an Applied Biosystems MDS Sciex 4000QTRAP mass spectrometer. Both instruments are controlled using the Applied Biosystems MDS Sciex Analyst software. LpxC reaction product (UDP-3-O—(R-3-hydroxyacyl)-glucosamine) was produced by hydrolysis of LpxC substrate catalyzed by P.a. LpxC and purified using reversed phase chromatography on a Phenomenex Luna C18(2) 4.6×50 mm column. An LpxC product calibration curve was generated to evaluate the sensitivity and dynamic range of the LC-MS/MS method. Briefly, compounds are pre-incubated with 1 nM P. aeruginosa LpxC for 30 min. at room temperature. Reactions are initiated by the addition of 2 μM UDP-3-O—(R-3-hydroxydecanoyl)-GlcNAc. Reactions are conducted in a 384-well plate with a total volume of 50 μL in each well containing 50 mM Sodium phosphate pH 7.5, 0.005% Trition X-100 for 20 min at room temperature. After quenching with 1.8% HOAc (5 μL of a 20% HOAc added to each well), reaction mixtures are analyzed using the LC-MS/MS method and peak areas are transformed into product concentration using a LpxC product calibration curve. Total activity (0% inhibition control) is obtained from reactions with no inhibitors and 100% inhibition control is the background using quenched samples before reaction starts. For IC50 determinations, peak areas are converted to percent inhibition in Microsoft Excel. Percent inhibition values are plotted vs. log compound concentration using XLfit. Data is fit to the four-parameter logistic equation using the non-linear regression algorithm in XLfit to return the IC50 and hill slope values.

P. A. PAO1 NB52019 = test: MIC, broth microdilution (CLSI); format: cell-based, Pseudomonas aeruginosa; conditions: for MIC: Pseudomonas aeruginosa, read-out: P. A. PAO1 NB52019 MIC
Protocol: as §1, §2

[3] = broth microdilution, 35° C., 20 hours
[4] = ATCC19606, broth microdilution, 35° C., 20 hours
[5] = PAO1, broth microdilution, 35° C., 20 hours

Structure (SMILES)	MIC (E. C. ATCC 25922; [3]) [µg/mL]	MIC (A. B. ATCC 19606 [1]; [4]) [µg/mL]	E. C. ATCC 29522 (+2 μg/ml RIF) MIC (E. C. ATCC 29522) [µg/mL]	A. B. ATCC 19606 (+2 μg/ml RIF) MIC (A. B. ATCC 19606 [2]) [µg/mL]	IC50 (P. aeruginosa LpxC) [nM]	MIC (P. A. PAO1 NB52019; [5]) [µg/mL]	E. C. ATCC 25922 MIC (E. C. ATCC 25922; [3]) [µg/mL]	A. B. ATCC 19606 MIC (A. B. ATCC 19606 [1]; [3]) [µg/mL]	P. A. PAO1 NB52019 MIC (P. A. PAO1 NB52019; [3]) [µg/mL]	MIC (E. C. ATCC 25922) [µg/mL]	MIC (A. B. ATCC 19606 [1]; ATCC19606, 20 h) [µg/mL]	MIC (P. A. PAO1 NB52019; PAO1, 20 h) [µg/mL]
C[C@@](CCc1cc(/C(F)=C\C2CC2)on1)(C(=O)NO)S(C)(=O)=O [Compound 4.5-2, (R,E)-4-(5-(2-cyclopropyl-1-fluorovinyl)isoxazol-3-yl)-N-hydroxy-2-methyl-2-(methylsulfonyl)butanamide]	64	> 64	2	16		8						
Cc1cc([C@H](O)[C@](C)(NCc2cc(C#CC3CC3)on2)C(=O)NO)no1 [Compound 3.1, (2S,3R)-2-(((5-(cyclopropylethynyl)isoxazol-3-yl)methyl)amino)-N,3-dihydroxy-2-methyl-3-(5-methylisoxazol-3-yl)propanamide]			≤0.06	≤0.06	< 1					1	> 64	0.5
C[C@@](CCc1cc(C#CC2CC2)on1)(C(=O)NO)S(C)(=O)=O [Compound 1.1, (R)-4-(5-(cyclopropylethynyl)isoxazol-3-yl)-N-hydroxy-2-methyl-2-(methylsulfonyl)butanamide]	2	> 64	≤0.06	0.125	3	0.25						
C/C=C(\C)c1cc(CC[C@](C)(C(=O)NO)S(C)(=O)=O)no1 [Compound 4.3-1, (R,E)-4-(5-(but-2-en-2-yl)isoxazol-3-yl)-N-hydroxy-2-methyl-2-(methylsulfonyl)butanamide]			0.5	8	3					32	> 64	2
COCC1CC(C#Cc2cc(CC[C@](C)(C(=O)NO)S(C)(=O)=O)no2)C1 (single isomer, unassigned) [Compound 1.15a]	8	> 64	0.25	0.25		2						
COCC1CC(C#Cc2cc(CC[C@](C)(C(=O)NO)S(C)(=O)=O)no2)C1 (single isomer, unassigned) [Compound 1.15b]			0.25	0.5			4	>64	2			
C/C=C(/C)c1cc(CC[C@](C)(C(=O)NO)S(C)(=O)=O)no1 [Compound 4.3-2, (R,Z)-4-(5-(but-2-en-2-yl)isoxazol-3-yl)-N-hydroxy-2-methyl-2-(methylsulfonyl)butanamide]			0.5	8						16	> 64	2

Continued, in another order:

MIC (E. C. ATCC 25922; [3]) [µg/mL]	MIC (A. B. ATCC 19606 [1]; [4]) [µg/mL]	E. C. ATCC 29522 (+2 μg/ml RIF) MIC (E. C. ATCC 29522) [µg/mL]	A. B. ATCC 19606 (+2 μg/ml RIF) MIC (A. B. ATCC 19606 [2]) [µg/mL]	IC50 (P. aeruginosa LpxC) [nM]	MIC (P. A. PAO1 NB52019; [5]) [µg/mL]	E. C. ATCC 25922 MIC (E. C. ATCC 25922; [3]) [µg/mL]	A. B. ATCC 19606 MIC (A. B. ATCC 19606 [1]; [3]) [µg/mL]	P. A. PAO1 NB52019 MIC (P. A. PAO1 NB52019; [3]) [µg/mL]	Structure (SMILES)	MIC (E. C. ATCC 25922) [µg/mL]	MIC (A. B. ATCC 19606 [1]; ATCC19606, 20 h) [µg/mL]	MIC (P. A. PAO1 NB52019; PAO1, 20 h) [µg/mL]
0.25	> 64	≤0.06	0.5	< 1	0.25				CC(CCc1cc(C#Cc2ccc(CCO)cc2)on1)(C(=O)NO)S(C)(=O)=O (stereo not drawn) [Compound 2.2, N-hydroxy-4-(5-((4-(2-hydroxyethyl)phenyl)ethynyl)isoxazol-3-yl)-2-methyl-2-(methylsulfonyl)butanamide]			
8	> 64	0.125	1	< 1	0.5				CC/C=C/c1cc(CC[C@](C)(C(=O)NO)S(C)(=O)=O)no1 [Compound 4.1, (R,E)-4-(5-(but-1-en-1-yl)isoxazol-3-yl)-N-hydroxy-2-methyl-2-(methylsulfonyl)butanamide]			
1	> 64	0.5	≤0.06	< 1	1				Cc1cc([C@H](O)[C@](C)(NCc2cc(C#CC3CCC3)on2)C(=O)NO)no1 [Compound 3.2, (2S,3R)-2-(((5-(cyclobutylethynyl)isoxazol-3-yl)methyl)amino)-N,3-dihydroxy-2-methyl-3-(5-methylisoxazol-3-yl)propanamide]			
2	> 64	≤0.06	0.125	< 1	0.25				CCCC#Cc1cc(CC[C@](C)(C(=O)NO)S(C)(=O)=O)no1 [Compound 1.7, (R)—N-hydroxy-2-methyl-2-(methylsulfonyl)-4-(5-(pent-1-yn-1-yl)isoxazol-3-yl)butanamide]			
16	> 64	4	4	< 1	2				CC(C)(O)C1CC(C#Cc2cc(CC[C@](C)(C(=O)NO)S(C)(=O)=O)no2)C1 (stereo partly drawn) [Compound 1.16, (R)—N-hydroxy-4-(5-((3-(2-hydroxypropan-2-yl)cyclobutyl)ethynyl)isoxazol-3-yl)-2-methyl-2-(methylsulfonyl)butanamide]			
16	> 64	0.25	≤0.06		0.5				C[C@@](CCc1cc(C#CC2CC(F)C2)on1)(C(=O)NO)S(C)(=O)=O (stereo partly drawn) [Compound 1.13, (R)-4-(5-((3-fluorocyclobutyl)ethynyl)isoxazol-3-yl)-N-hydroxy-2-methyl-2-(methylsulfonyl)butanamide]			
8	> 64	0.125	0.5		0.25				C[C@@](CCc1cc(/C=C/C2CC2)on1)(C(=O)NO)S(C)(=O)=O [Compound 4.2, (R,E)-4-(5-(2-cyclopropylvinyl)isoxazol-3-yl)-N-hydroxy-2-methyl-2-(methylsulfonyl)butanamide]			

Source: patent US10029994B2, “Isoxazole hydroxamic acid compounds as LpxC inhibitors” (priority 2014, dated 2018)
